Results taken from US6337417B1, “N-phenyltetrahydrophthalamic acid derivatives, methods of producing same, and herbicides containing same as effective components” (Central Glass Co., Ltd., priority 1994, dated 2002).

What was measured:
Type in all cases: in vivo
Set-up in all cases: key: 5: completely killed; 4: seriously injured; 3: considerably injured; 2: somewhat injured; 1: slightly injured; 0: not injured (normally grown)
[1] = system: paddy rice; assay: Experiment 7 flooded soil treatment: injury to paddy rice; conditions: evaluated 4 weeks after treatment
Text: (§1) Paddy soil (clay loam) was put into a pot so as to have a surface area of 1/15500 ares. Uniformly mixed seeds of several kinds of weeds, viz., nobie (barnyardgrass, Echinochloa spp.), broad-leaved weeds, hotarui (bulrush, Scirpus juncoides) and tamagayatsuri (small-flowered umbrellaplant, Cyperus difformis), were sown in the surface layer of the soil in each pot, and then paddy rice seedlings at the two- or three-leaved stage were transplanted into each pot to a depth of 2 cm, and water was fed into each pot so as to provide a 3 cm deep water layer on the soil surface. After 3 days, in other words at the initial stage of germination of nobie (barnyardgrass, Echinochloa spp.), a predetermined amount of a selected compound obtained in a manner analogous to Example 14 in the form of diluted aqueous solution was dropped into the water layer in each pot. After that, the pots were kept in a glass chamber to allow the paddy rice and the weeds to grow, and after the lapse of 4 weeks from the treatment with the selected compounds, the herbicidal effects and the degree of injury to the paddy rice were evaluated. The evaluation of the herbicidal effects was similarly conducted as that of Experiment 1.

[2] = system: nobie (barnyardgrass, Echinochloa spp.); assay: Experiment 7 flooded soil treatment: nobie; conditions: evaluated 4 weeks after treatment
Text: as §1

[3] = system: broad-leaved weeds; assay: Experiment 7 flooded soil treatment: broad-leaved weeds; conditions: evaluated 4 weeks after treatment
Text: as §1

[4] = system: hotarui (bulrush, Scirpus juncoides); assay: Experiment 7 flooded soil treatment: hotarui; conditions: evaluated 4 weeks after treatment
Text: as §1

[5] = system: tamagayatsuri (small-flowered umbrellaplant, Cyperus difformis); assay: Experiment 7 flooded soil treatment: tamagayatsuri; conditions: evaluated 4 weeks after treatment
Text: as §1

[6] = system: rice; assay: Experiment 8 foliage treatment: rice; conditions: foliage spray of wettable powder suspension, evaluated 4 weeks after treatment
Description: (§2) Upon seedling stage (two- or three-leaved stage) of rice, cockspur (Panicum crus-galli), garden radish, aobiyu (slender amaranth, Amaranthus viridis) and mehishiba (henry crabgrass, Digitaria cliaris) which were grown on a cultivated soil put in pots of 1/15500 ares, a selected compound obtained in a manner analogous to Example 14, in suspended wettable powder, was sprayed to each plant. After that, the pots were kept in a glass chamber to allow each plant to grow, and after the lapse of 4 weeks from the treatment with the selected compounds the herbicidal effects were evaluated. The evaluation of the herbicidal effects was similarly conducted as to that of Experiment 1.

[7] = system: cockspur (Panicum crus-galli); assay: Experiment 8 foliage treatment: cockspur; conditions: foliage spray of wettable powder suspension, evaluated 4 weeks after treatment
Description: as §2

[8] = system: garden radish; assay: Experiment 8 foliage treatment: garden radish; conditions: foliage spray of wettable powder suspension, evaluated 4 weeks after treatment
Description: as §2

[9] = system: aobiyu (slender amaranth, Amaranthus viridis); assay: Experiment 8 foliage treatment: aobiyu; conditions: foliage spray of wettable powder suspension, evaluated 4 weeks after treatment
Description: as §2

[10] = system: mehishiba (henry crabgrass, Digitaria cliaris); assay: Experiment 8 foliage treatment: mehishiba; conditions: foliage spray of wettable powder suspension, evaluated 4 weeks after treatment
Description: as §2

[11] = system: ichibi (velvetleaf, Abutilon theophrasti); assay: Experiment 9 foliage treatment: ichibi; conditions: foliage spray of wettable powder suspension, evaluated 4 weeks after treatment
Description: as §2, with “ichibi (velvetleaf, Abutilon theophrasti), onamomi (heartleaf cocklebur, Xanthium strumarium) (4L stage), noasagao (blue morningglory, Ipomoea indica)” for “rice, cockspur (Panicum crus-galli), garden radish, aobiyu (slender amaranth, Amaranthus viridis)”, “ooinutade (pale smartweed, Persicaria lapathifolia)” for “mehishiba (henry crabgrass, Digitaria cliaris)”, “1/8850” for “1/15500”, “as” for “as to”

[12] = system: onamomi (heartleaf cocklebur, Xanthium strumarium); assay: Experiment 9 foliage treatment: onamomi; conditions: foliage spray of wettable powder suspension, evaluated 4 weeks after treatment
Description: as §2, with “ichibi (velvetleaf, Abutilon theophrasti), onamomi (heartleaf cocklebur, Xanthium strumarium) (4L stage), noasagao (blue morningglory, Ipomoea indica)” for “rice, cockspur (Panicum crus-galli), garden radish, aobiyu (slender amaranth, Amaranthus viridis)”, “ooinutade (pale smartweed, Persicaria lapathifolia)” for “mehishiba (henry crabgrass, Digitaria cliaris)”, “1/8850” for “1/15500”, “as” for “as to”

[13] = system: noasagao (blue morningglory, Ipomoea indica); assay: Experiment 9 foliage treatment: noasagao; conditions: foliage spray of wettable powder suspension, evaluated 4 weeks after treatment
Description: as §2, with “ichibi (velvetleaf, Abutilon theophrasti), onamomi (heartleaf cocklebur, Xanthium strumarium) (4L stage), noasagao (blue morningglory, Ipomoea indica)” for “rice, cockspur (Panicum crus-galli), garden radish, aobiyu (slender amaranth, Amaranthus viridis)”, “ooinutade (pale smartweed, Persicaria lapathifolia)” for “mehishiba (henry crabgrass, Digitaria cliaris)”, “1/8850” for “1/15500”, “as” for “as to”

[14] = system: ooinutade (pale smartweed, Persicaria lapathifolia); assay: Experiment 9 foliage treatment: ooinutade; conditions: foliage spray of wettable powder suspension, evaluated 4 weeks after treatment
Description: as §2, with “ichibi (velvetleaf, Abutilon theophrasti), onamomi (heartleaf cocklebur, Xanthium strumarium) (4L stage), noasagao (blue morningglory, Ipomoea indica)” for “rice, cockspur (Panicum crus-galli), garden radish, aobiyu (slender amaranth, Amaranthus viridis)”, “ooinutade (pale smartweed, Persicaria lapathifolia)” for “mehishiba (henry crabgrass, Digitaria cliaris)”, “1/8850” for “1/15500”, “as” for “as to”

Row | SMILES | Injury of Paddy ([1]; 6.25 g/10a) | Injury of Paddy ([1]; 12.5 g/10a) | Herbicidal Effect nobie ([2]; 6.25 g/10a) | Herbicidal Effect nobie ([2]; 12.5 g/10a) | Herbicidal Effect broad-leaved weed ([3]; 6.25 g/10a) | Herbicidal Effect broad-leaved weed ([3]; 12.5 g/10a) | Herbicidal Effect hotarui ([4]; 6.25 g/10a) | Herbicidal Effect hotarui ([4]; 12.5 g/10a) | Herbicidal Effect tamagayatsuri ([5]; 6.25 g/10a) | Herbicidal Effect tamagayatsuri ([5]; 12.5 g/10a) | Herbicidal Effect rice ([6]; 40 g/10a) | Herbicidal Effect rice ([6]; 80 g/10a) | Herbicidal Effect cockspur ([7]; 40 g/10a) | Herbicidal Effect cockspur ([7]; 80 g/10a) | Herbicidal Effect garden radish ([8]; 40 g/10a) | Herbicidal Effect garden radish ([8]; 80 g/10a) | Herbicidal Effect aobiyu ([9]; 40 g/10a) | Herbicidal Effect aobiyu ([9]; 80 g/10a) | Herbicidal Effect mehishiba ([10]; 40 g/10a) | Herbicidal Effect mehishiba ([10]; 80 g/10a) | other results
1 | C#CC(C)Oc1cc(N(C(=O)C2=C(C(=O)OC)CCCC2)C(=O)c2cccs2)c(F)cc1Cl (racemic) [compound 91, N-[4-chloro-2-fluoro-5-(1-methylproparzyloxy)phenyl]-N-(2-thiophenecarboxy)-3,4,5,6-tetrahydrophthalamic acid methyl ester] | 0 | 0.5 | 5 | 5 | 5 | 5 | 4 | 5 | 5 | 5 | 1 | 1 | 1 | 1 | 5 | 5 | 5 | 5 | 1 | 1 | Herbicidal Effet ichibi ([11]; 4 g/10a): 5; Herbicidal Effet ichibi ([11]; 8 g/10a): 5; Herbicidal Effet onamomi ([12]; 4 g/10a): 4; Herbicidal Effet onamomi ([12]; 8 g/10a): 5; Herbicidal Effet noasagao ([13]; 4 g/10a): 4; Herbicidal Effet noasagao ([13]; 8 g/10a): 5; Herbicidal Effet ooinutade ([14]; 4 g/10a): 5; Herbicidal Effet ooinutade ([14]; 8 g/10a): 5
2 | C#CC(C)Oc1cc(N(C(=O)C2=C(C(=O)OC)CCCC2)C(=O)c2ccsc2)c(F)cc1Cl (stereo not shown) [Compound No. 100] | 0.5 | 0.5 | 5 | 5 | 5 | 5 | 5 | 5 | 5 | 5 | 1 | 1 | 1 | 1 | 5 | 5 | 5 | 5 | 1 | 1 | Herbicidal Effet ichibi ([11]; 4 g/10a): 5; Herbicidal Effet ichibi ([11]; 8 g/10a): 5; Herbicidal Effet onamomi ([12]; 4 g/10a): 5; Herbicidal Effet onamomi ([12]; 8 g/10a): 5; Herbicidal Effet noasagao ([13]; 4 g/10a): 5; Herbicidal Effet noasagao ([13]; 8 g/10a): 5; Herbicidal Effet ooinutade ([14]; 4 g/10a): 5; Herbicidal Effet ooinutade ([14]; 8 g/10a): 5
3 | C#CC(C)Oc1cc(N(C(=O)C2=C(C(=O)OC)CCCC2)C(=O)c2ccc(Cl)s2)c(F)cc1Cl (stereo not shown) [compound 97] | 0 | 0 | 5 | 5 | 5 | 5 | 4 | 4 | 4 | 4 | 1 | 1 | 1 | 1 | 5 | 5 | 4 | 5 | 1 | 1 | Herbicidal Effet ichibi ([11]; 4 g/10a): 5; Herbicidal Effet ichibi ([11]; 8 g/10a): 5; Herbicidal Effet onamomi ([12]; 4 g/10a): 4; Herbicidal Effet onamomi ([12]; 8 g/10a): 4; Herbicidal Effet noasagao ([13]; 4 g/10a): 4; Herbicidal Effet noasagao ([13]; 8 g/10a): 4; Herbicidal Effet ooinutade ([14]; 4 g/10a): 4; Herbicidal Effet ooinutade ([14]; 8 g/10a): 5
4 | C#CC(C)Oc1cc(N(C(=O)C2=C(C(=O)OCCCC)CCCC2)C(=O)c2ccsc2)c(F)cc1Cl (stereo not shown) [compound 102] | 0.5 | 0.5 | 5 | 5 | 5 | 5 | 4 | 4 | 5 | 5 | 1 | 1 | 1 | 1 | 5 | 5 | 5 | 5 | 1 | 1 | Herbicidal Effet ichibi ([11]; 4 g/10a): 5; Herbicidal Effet ichibi ([11]; 8 g/10a): 5; Herbicidal Effet onamomi ([12]; 4 g/10a): 5; Herbicidal Effet onamomi ([12]; 8 g/10a): 5; Herbicidal Effet noasagao ([13]; 4 g/10a): 4; Herbicidal Effet noasagao ([13]; 8 g/10a): 5; Herbicidal Effet ooinutade ([14]; 4 g/10a): 4; Herbicidal Effet ooinutade ([14]; 8 g/10a): 5
